Active and inactive are the calls of the source. No cut-off for these calls is given here.
Tests used:
Rattus norvegicus [1] = assay: Antagonistic activity against fenfluramine induced hyperthermia in rat after peroral administration; format: functional; conditions: po, read-out: ID50 (the source's name)
Mus musculus [2] = assay: compound was tested for antagonistic activity against 5-Hydroxytryptamine-induced head shake in mouse after intraperitoneal administration; NA denotes not active.; format: functional, organism-based
Mus musculus [3] = assay: Antagonistic activity test against 5-Hydroxytryptamine-induced head shake in mouse after intraperitoneal administration; format: functional; conditions: ip, read-out: ID50 (the source's name)
Rattus norvegicus [4] = assay: compound was tested for antagonistic activity against fenfluramine induced hyperthermia in rat after peroral administration at 50 mg/kg; NA denotes not active.; format: functional, organism-based; design: dose 50 mg/kg
Mus musculus [5] = species: Mus musculus; assay: compound was tested for antagonistic activity against 5-Hydroxytryptamine-induced head shake in mouse; format: functional; conditions: read-out: ID50 (the source's name)
Rattus norvegicus [6] = species: Rattus norvegicus; assay: compound was tested for antagonistic activity against fenfluramine induced hyperthermia in rat; format: functional; conditions: read-out: ID50 (the source's name)
Rattus norvegicus [7] = assay: compound was tested for antagonistic activity against fenfluramine induced hyperthermia in rat after peroral administration; NA denotes not active at a dose of 50 mg/kg.; format: functional, organism-based; design: dose 50 mg/kg
Rattus norvegicus [8] = assay: compound was tested for antagonistic activity against fenfluramine induced hyperthermia in rat after peroral administration; Value ranges from 0.1-1.3; format: functional; conditions: po, read-out: ID50 (the source's name)
Mus musculus [9] = assay: compound was tested for antagonistic activity against 5-Hydroxytryptamine-induced head shake in mouse after intraperitoneal administration; Value ranges from 0.35-0.77; format: functional; conditions: ip, read-out: ID50 (the source's name)
Mus musculus [10] = assay: compound was tested for antagonistic activity against 5-Hydroxytryptamine-induced head shake in mouse after intraperitoneal administration; Value ranges from 1.0-2.5; format: functional; conditions: ip, read-out: ID50 (the source's name)
Rattus norvegicus [11] = assay: compound was tested for antagonistic activity against fenfluramine induced hyperthermia in rat after peroral administration; Value ranges from 0.3-4.3; format: functional; conditions: po, read-out: ID50 (the source's name)
Mus musculus [12] = assay: compound was tested for antagonistic activity against 5-Hydroxytryptamine-induced head shake in mouse after intraperitoneal administration; Value ranges from 0.02-0.9; format: functional; conditions: ip, read-out: ID50 (the source's name)
Rattus norvegicus [13] = assay: compound was tested for antagonistic activity against fenfluramine induced hyperthermia in rat after peroral administration 0.02-0.3; format: functional; conditions: po, read-out: ID50 (the source's name)
Mus musculus [14] = assay: compound was tested for antagonistic activity against 5-Hydroxytryptamine-induced head shake in mouse after intraperitoneal administration; NA denotes not active at a dose of 50 mg/kg.; format: functional, organism-based; design: dose 50 mg/kg
Rattus norvegicus [15] = assay: compound was tested for antagonistic activity against fenfluramine induced hyperthermia in rat after peroral administration at 50 mg/kg; format: functional, organism-based; design: dose 50 mg/kg
Rattus norvegicus [16] = assay: compound was tested for antagonistic activity against fenfluramine induced hyperthermia in rat after peroral administration at a dose of 50 mg/kg; NA denotes not active.; format: functional, organism-based; design: dose 50 mg/kg

| SMILES | ED50 (Rattus norvegicus [1]) [mg/kg] | ED50 (Mus musculus [3]) [mg/kg] | other results |
| --- | --- | --- | --- |
| CN(C)CCSc1nc2cc(N(C)C)ccc2cc1-c1ccccc1.O=C(O)C(=O)O | 50 |  | ID50 (Mus musculus [2]): inactive |
| CCCOc1ccc2cc(-c3ccccc3)c(SCCN(C)C)nc2c1.O=C(O)C(=O)O | 50 | 50 |  |
| COc1c(-c2ccc(F)cc2)c(SCCN(C)C)nc2ccccc12.O=C(O)C(=O)O | 3.3 | 50 |  |
| Cc1ccccc1-c1cc2ccccc2nc1SCCN(C)C.Cl | 50 | 3 |  |
| CN(C)CCSc1nc2ccccc2c(C(N)=O)c1-c1ccccc1 |  |  | ID50 (Mus musculus [2]): inactive; ID50 (Rattus norvegicus [4]): inactive |
| CSc1ccc2nc(SCCN(C)C)c(-c3ccccc3)cc2c1.O=C(O)C(=O)O | 10.3 | 50 |  |
| CCC(C)c1cc2ccccc2nc1SCCN(C)C.O=C(O)C(=O)O (stereo not drawn) | 50 | 1.5 |  |
| CC(c1ccccc1)c1cc2ccccc2nc1SCCN(C)C.O=C(O)C(=O)O (stereo not drawn) |  | 50 | ID50 (Rattus norvegicus [4]): inactive |
| COc1ccccc1-c1cc2cc(C)ccc2nc1SCCN(C)C.O=C(O)C(=O)O | 50 | 50 |  |
| CCCc1cc2ccccc2nc1SCCN(C)C.O=C(O)C(=O)O |  |  | ED50 (Mus musculus [5]): 5 mg/kg; ID50 (Rattus norvegicus [4]): inactive |
| Cc1ccc(-c2cc3ccccc3nc2SCCN(C)C)cc1.Cl | 4.2 | 1.9 |  |
| CN(C)CCSc1nc2ccccc2cc1Cc1ccccc1.Cl |  | 50 | ID50 (Rattus norvegicus [4]): inactive |
| CSc1ccc2cc(-c3ccccc3)c(SCCN(C)C)nc2c1 | 50 |  | ID50 (Mus musculus [2]): inactive |
| CSc1ccc(-c2cc3ccccc3nc2SCCN(C)C)cc1.Cl |  | 10 | ED50 (Rattus norvegicus [6]): 7.8 mg/kg |
| COc1ccc2cc(-c3ccccc3)c(SCCN(C)C)nc2c1.Cl | 3.1 | 50 |  |
| CN(C)CCSc1nc2ccccc2cc1-c1ccc(Cl)cc1.Cl |  | 9.1 | ID50 (Rattus norvegicus [7]): inactive |
| Cc1cccc(-c2cc3ccccc3nc2SCCN(C)C)c1.Cl | 5.9 | 1.7 |  |
| COc1c(-c2ccccc2)c(SCCN(C)C)nc2ccccc12.O=C(O)C(=O)O | 5.5 | 3.5 |  |
| Cc1c(-c2ccc(F)cc2)c(SCCN(C)C)nc2ccccc12.O=C(O)C(=O)O | 11.1 | 50 |  |
| CN(C)CCSc1nc2ccc(Br)cc2cc1-c1ccccc1.O=C(O)C(=O)O | 6.7 | 50 |  |
| COc1ccc(-c2cc3ccccc3nc2SCCN(C)C)cc1.Cl | 28 | 5.9 |  |

| SMILES | ED50 (Rattus norvegicus [1]) [mg/kg] | ED50 (Mus musculus [3]) [mg/kg] | other results |
| --- | --- | --- | --- |
| COc1ccccc1-c1c(SCCN(C)C)nc2ccccc2c1C.O=C(O)C(=O)O | 50 | 50 |  |
| CN(C)CCSc1nc2ccccc2cc1-c1cccs1.O=C(O)C(=O)O | 6.9 | 4.9 |  |
| CN(C)CCSc1nc2ccccc2cc1-c1ccsc1.O=C(O)C(=O)O | 7.9 | 3.4 |  |
| CC[C@@H](CO)NC(=O)[C@@H]1C=C2c3cccc4c3c(cn4C)C[C@H]2N(C)C1 [METHYSERGIDE] |  |  | ED50 (Rattus norvegicus [8]): 0.4 mg/kg; ED50 (Mus musculus [9]): 0.52 mg/kg |
| Cc1ccc2cc(-c3ccccc3)c(SCCN(C)C)nc2c1.O=C(O)C(=O)O | 50 | 50 |  |
| CN(C)CCSc1nc2ccccc2cc1-c1ccccc1.Cl |  |  | ED50 (Mus musculus [10]): 1.6 mg/kg; ED50 (Rattus norvegicus [11]): 1.2 mg/kg |
| CCN(C)CCSc1nc2ccccc2cc1-c1ccccc1.O=C(O)C(=O)O |  | 50 |  |
| COc1c(-c2ccsc2)c(SCCN(C)C)nc2ccccc12.O=C(O)C(=O)O |  | 50 | ID50 (Rattus norvegicus [4]): inactive |
| CCCOc1ccc(-c2cc3ccccc3nc2SCCN(C)C)cc1.Cl | 5.3 | 0.5 |  |
| CN(C)CCSc1nc2ccccc2cc1-c1ccc(O)cc1.Cl | 50 | 7.9 |  |
| CN(C)CCSc1nc2ccccc2cc1-c1ccc(C#N)cc1.Cl | 10.7 | 1.2 |  |
| CN(C)CCSc1nc2ccccc2cc1C1CC1.O=C(O)C(=O)O | 25 | 3.4 |  |
| CNCCSc1nc2ccccc2cc1-c1ccccc1.Cl | 7 | 6.2 |  |
| CCCCc1cc2ccccc2nc1SCCN(C)C.Cl | 50 | 2.3 |  |
| COc1c(-c2ccccc2C)c(SCCN(C)C)nc2ccccc12.Cl | 7.2 | 50 |  |
| Cc1c(C(C)C)c(SCCN(C)C)nc2ccccc12.O=C(O)C(=O)O |  | 50 | ID50 (Rattus norvegicus [4]): inactive |
| Cc1c(-c2ccsc2)c(SCCN(C)C)nc2ccccc12.O=C(O)C(=O)O | 50 | 3.1 |  |
| COc1cccc(-c2cc3ccccc3nc2SCCN(C)C)c1.Cl | 5.1 | 25 |  |
| CN(C)CCSc1nc2ccccc2cc1C1CCCCC1.Cl | 50 | 50 |  |
| CCN(CC)CCSc1nc2ccccc2cc1-c1ccccc1.Cl | 50 | 25 |  |
| CN(C)CCSc1nc2ccccc2cc1-c1cccc(F)c1.Cl | 4.6 | 2.5 |  |

| SMILES | ED50 (Rattus norvegicus [1]) [mg/kg] | ED50 (Mus musculus [3]) [mg/kg] | other results |
| --- | --- | --- | --- |
| CN(C)CCSc1nc2ccccc2cc1C1CCCC1.O=C(O)C(=O)O |  | 50 | ID50 (Rattus norvegicus [4]): inactive |
| Cl.NCCSc1nc2ccccc2cc1-c1ccccc1 | 4.8 | 50 |  |
| COc1ccc2nc(SCCN(C)C)c(-c3ccccc3)cc2c1.O=C(O)C(=O)O | 8.3 | 50 |  |
| O=C(c1ccc(F)cc1)C1CCN(CCn2c(=O)[nH]c3ccccc3c2=O)CC1 [KETANSERIN] |  |  | ED50 (Mus musculus [12]): 0.5 mg/kg; ED50 (Rattus norvegicus [13]): 0.1 mg/kg |
| CN(C)CCSc1nc2ccccc2cc1C(C)(C)C.O=C(O)C(=O)O |  | 50 | ID50 (Rattus norvegicus [4]): inactive |
| CC(C)c1cc2ccccc2nc1SCCN(C)C.Cl | 2.7 | 2.6 |  |
| CN(C)CCSc1nc2ccccc2cc1-c1ccc(F)cc1.Cl | 2.9 | 1.7 |  |
| CN(C)CCSc1nc2ccccc2cc1-c1ccccc1F.Cl | 7.2 | 1.9 |  |
| CN(C)CCSc1nc2ccc(Cl)cc2cc1-c1ccccc1.O=C(O)C(=O)O | 50 | 50 |  |
| COc1ccccc1-c1cc2ccccc2nc1SCCN(C)C.Cl | 4.6 | 1.2 |  |
| CCc1cc2ccccc2nc1SCCN(C)C.Cl | 50 | 50 |  |
| CN(C)CCSc1nc2ccccc2cc1-c1ccccc1Cl.Cl | 9.9 | 50 |  |
| COc1ccc(OC)c(-c2cc3ccccc3nc2SCCN(C)C)c1.Cl | 4.2 | 3 |  |
| Cc1ncc(-c2cc3ccccc3nc2SCCN(C)C)s1.O=C(O)C(=O)O | 6.9 | 4.9 |  |
| Cc1c(-c2ccccc2)c(SCCN(C)C)nc2ccccc12.O=C(O)C(=O)O | 50 | 6.2 |  |
| CN(C)CCSc1nc2ccccc2cc1-c1ccc(Br)cc1.Cl | 50 | 19.1 |  |
| CN(C)CCSc1nc2ccccc2cc1-c1ccccn1.O=C(O)C(=O)O | 50 | 3.4 |  |
| Cc1cc2ccccc2nc1SCCN(C)C |  |  | ID50 (Mus musculus [14]): inactive; ID50 (Rattus norvegicus [15]): inactive |
| Cc1cccc2cc(-c3ccccc3)c(SCCN(C)C)nc12 |  |  | ID50 (Mus musculus [2]): inactive; ID50 (Rattus norvegicus [4]): inactive |
| CN(C)CCSc1nc2ccccc2cc1-c1ccc(C(F)(F)F)cc1.Cl |  | 50 | ID50 (Rattus norvegicus [16]): inactive |
